According to PubChem BioAssay AID720570 (Broad Institute, 2013):
Activity calls are given as the source filed them.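 The calls were made as follows: active = cell-killing curve crosses a set limit at a concentration no more than twice the top valid dose; inconclusive = flat curve with a 30 to 70% loss, or a poor fit; inactive = signal rising instead of falling, and the rest.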

Test: TC71 Ewing sarcoma cell killing, confirmation, luminescence, cherry-picked samples, retest (AID 720570)
Conditions: TC71 Ewing sarcoma viability, CellTiter-Glo ATP, 72 h; at 23.5 µM (top of the series)
For `N#C[C@H]1N[C@H](CO)[C@H]1c1ccc(C#Cc2ccccc2F)cc1`, the activity change, negative = cytotoxicity was -18.8% (inactive).

Same assay, conditions: TC71 Ewing sarcoma viability, CellTiter-Glo ATP, 72 h; at 26 µM (top of the series)
For `O=C1NC(=O)N(CCc2ccc(F)cc2)C(=O)/C1=C/C=C/c1ccccc1`, the activity change, negative = cytotoxicity was 11.3% (inactive).
For `CCCCNC(=O)C(c1ccc(OCC(=O)OC)c(C(=O)OC)c1)N(CCOC)C(=O)CCCCCN1C(=O)NC(c2ccc(-c3ccccc3)cc2)C(C(=O)OCc2ccccc2)=C1C` (stereo not drawn), the activity change, negative = cytotoxicity was 19.3% (inactive).
With `COc1ccc2cc(C(N)=O)/c(=N\NC(=O)c3ccccc3)oc2c1` the activity change, negative = cytotoxicity was 16.9% (inactive).
In the case of `CCOc1cc2[nH]c(=S)n(Cc3ccc(C(=O)N4CCN(C)CC4)cc3)c(=O)c2cc1OCC`, the activity change, negative = cytotoxicity is reported as 11.2% (inactive).
For `CN(C)C(=O)c1cccc(-c2ccc(C3[C@@H]4CN(Cc5nccs5)C[C@H]3N4)cc2)c1` (stereo partly drawn), the activity change, negative = cytotoxicity was 0.197% (inactive).
For `COc1ccccc1-c1cn(CC[C@H]2CC[C@@H](NC(=O)C3CCCC3)[C@@H](CO)O2)nn1`, the activity change, negative = cytotoxicity was 12.9% (inactive).
With `Cc1ccc(NC(=O)CCN2CCCCC2)cc1` the activity change, negative = cytotoxicity was 3.68% (inactive).
For `Nc1ccc2oc(-c3cc(Br)ccc3Cl)nc2c1`, the activity change, negative = cytotoxicity was -14.7% (inactive).
For `COc1ccc(/C=C2\SC(=S)N(CCCC(=O)NNC(=O)c3ccccc3O)C2=O)cc1`, the activity change, negative = cytotoxicity was -6.8% (inactive).
In the case of `Cc1ccc(C(=O)O/N=C(\N)c2ccccn2)cc1`, the activity change, negative = cytotoxicity is reported as -10% (inactive).
For `C/C=C/c1ccc(C2[C@@H]3CN(C(=O)Cc4ccccc4)C[C@H]2N3)cc1` (stereo partly drawn), the activity change, negative = cytotoxicity was 6.18% (inactive).
In the case of `Cc1ccc(S(=O)(=O)N(C)C[C@H]2Oc3c(cccc3N(C)C)C(=O)N([C@@H](C)CO)C[C@@H]2C)cc1`, the activity change, negative = cytotoxicity is reported as -6.3% (inactive).
In the case of `O=c1cc(CN2CCN(Cc3ccccc3)CC2)c2ccc(O)c(O)c2o1`, the activity change, negative = cytotoxicity is reported as -9.02% (inactive).
With `O=C(Nc1cccc(Oc2ccc3c(c2)C(=O)NC3=O)c1)c1cccs1` the activity change, negative = cytotoxicity was 9.53% (inactive).
For `CCOc1ccccc1CNC(=O)c1ccc(Sc2ccc(Cl)cc2)c(NC(C)=O)c1`, the activity change, negative = cytotoxicity was -3.24% (inactive).
In the case of `N#Cc1cccc(-c2ccc(C3[C@@H]4CN(C(=O)Cc5ccncc5)C[C@H]3N4)cc2)c1` (stereo partly drawn), the activity change, negative = cytotoxicity is reported as 0.809% (inactive).
With `CC(=O)Nc1cc(C(=O)NCc2ccco2)ccc1Sc1ccc(F)cc1` the activity change, negative = cytotoxicity was -1.03% (inactive).
For `CCCN1C(=O)/C(=C/c2nc3ccccc3c(=O)[nH]2)c2ccccc21`, the activity change, negative = cytotoxicity was 3.09% (inactive).
In the case of `Cc1ccsc1/C=N/Nc1ccc(C(=O)O)cc1`, the activity change, negative = cytotoxicity is reported as -11.1% (inactive).
With `Cc1sc2nc(CN3CCC(C)CC3)nc(Cl)c2c1C` the activity change, negative = cytotoxicity was 16.2% (inactive).
For `COc1ccc(NS(=O)(=O)c2cc(NC(=O)CNC(=O)c3cccc(OC)c3)ccc2C)cc1`, the activity change, negative = cytotoxicity was -0.075% (inactive).
In the case of `CC(NC(=O)c1ccco1)c1nc(-c2ccc(C(C)(C)C)cc2)no1` (stereo not drawn), the activity change, negative = cytotoxicity is reported as -6.69% (inactive).
For `COC(=O)Cc1ccc(NC(=O)c2ccccc2Cl)cc1`, the activity change, negative = cytotoxicity was -1.96% (inactive).
For `Nc1ccc2c(c1)OC1(CCCC1)O2`, the activity change, negative = cytotoxicity was 25.1% (inactive).
With `O=C1Nc2cc(C(=O)NCCN3CCCCCC3)ccc2S/C1=C\c1ccccc1` the activity change, negative = cytotoxicity was -2.13% (inactive).
In the case of `Cc1ccc(NC(=O)COC(=O)c2ccc3c(c2)OCO3)cc1S(=O)(=O)N1CCCCC1`, the activity change, negative = cytotoxicity is reported as 10.2% (inactive).
In the case of `Cc1ccccc1N=Nc1c(O)n(C)c2ccccc12`, the activity change, negative = cytotoxicity is reported as 3.17% (inactive).
With `O=C(NC(=O)c1ccccc1)Nc1ccccc1` the activity change, negative = cytotoxicity was 10.6% (inactive).
In the case of `O=C(/C=C/c1ccc(Cl)cc1Cl)N(Cc1ccc(Cl)cc1)C1CCS(=O)(=O)C1` (stereo not drawn), the activity change, negative = cytotoxicity is reported as 11.6% (inactive).
With `Brc1ccc(CSc2nnc(-c3ccco3)o2)cc1` the activity change, negative = cytotoxicity was 9.85% (inactive).
In the case of `COC(=O)C[C@@H]1CC[C@@H]2[C@@H](COc3ccc(NC(=O)Nc4ccc(C#N)cc4)cc3C(=O)N2C)O1`, the activity change, negative = cytotoxicity is reported as 15% (inactive).
For `Nc1ccc(Oc2cccc(Oc3ccc(N)cc3)c2)cc1`, the activity change, negative = cytotoxicity was -7.72% (inactive).
With `Cc1c(-c2nc(-c3ccc(C(C)(C)C)cc3)no2)n(C)oc1=O` the activity change, negative = cytotoxicity was -0.627% (inactive).
With `COc1ccc(/C=C2\SC(=O)N(CCCC(=O)Nc3cc(Cl)ccc3C(=O)O)C2=O)cc1` the activity change, negative = cytotoxicity was 5.69% (inactive).
In the case of `C[C@@H]1CN([C@H](C)CO)C(=O)c2cc(C#CCc3ccccc3)cnc2O[C@@H]1CN(C)Cc1cccc(F)c1`, the activity change, negative = cytotoxicity is reported as -4.64% (inactive).
For `C[C@@H]1CN([C@H](C)CO)S(=O)(=O)c2ccc(C#CC3CC3)cc2O[C@@H]1CN(C)Cc1ccccc1F`, the activity change, negative = cytotoxicity was -4.35% (inactive).
In the case of `COc1ccc(CCC(C)NCC2CCCCC2)cc1` (stereo not drawn), the activity change, negative = cytotoxicity is reported as 7.46% (inactive).
With `CN(C)[C@@H]1CCC[C@@H]1OC(=O)C(c1ccccc1)c1ccccc1` the activity change, negative = cytotoxicity was 10.9% (inactive).
For `Cc1ccc(/C=C2\SC(=S)N(CCC(=O)NNC(=O)c3ccccc3O)C2=O)cc1`, the activity change, negative = cytotoxicity was -7.03% (inactive).
With `CC(C)c1ccccc1NC(=O)COC(=O)CCN1C(=O)/C(=C\C=C\c2ccccc2)SC1=S` the activity change, negative = cytotoxicity was 19.1% (inactive).
With `CCc1ccc(/C=C2\SC(=S)N(CCCC(=O)NC3=NCCS3)C2=O)cc1` the activity change, negative = cytotoxicity was 13.5% (inactive).
For `COc1cccc(S(=O)(=O)N(C)C[C@H]2OCc3cnnn3CCCC(=O)N([C@@H](C)CO)C[C@H]2C)c1`, the activity change, negative = cytotoxicity was -0.98% (inactive).
With `CCCn1nnc(NC(=S)NC(=O)C(C)(C)C)n1` the activity change, negative = cytotoxicity was 17.3% (inactive).
In the case of `C/C(=N\OCc1cccc(C(=O)O)c1)c1ccc(Cl)cc1`, the activity change, negative = cytotoxicity is reported as -12.2% (inactive).
With `CC(C)CN(C(=O)CN1CCOCC1)c1c(N)n(CC(C)C)c(=O)[nH]c1=O` the activity change, negative = cytotoxicity was -2.81% (inactive).
In the case of `COC(=O)C[C@@H]1CC[C@@H]2[C@H](COc3ccc(NC(=O)Nc4cccc(C#N)c4)cc3C(=O)N2C)O1`, the activity change, negative = cytotoxicity is reported as 5.41% (inactive).
In the case of `C[C@@H]1CN([C@@H](C)CO)S(=O)(=O)c2ccc(C#Cc3ccncc3)cc2O[C@H]1CN(C)S(=O)(=O)c1ccccc1`, the activity change, negative = cytotoxicity is reported as -2.93% (inactive).
For `C[C@H](CO)N1C[C@H](C)[C@H](CN(C)CC2CCCCC2)Oc2ccc(NC(=O)Nc3cccc4ccccc34)cc2C1=O`, the activity change, negative = cytotoxicity was 6.42% (inactive).
In the case of `CC1=NC(=O)C(N=Nc2cccc(C(=O)O)c2)N1c1ccccc1` (stereo not drawn), the activity change, negative = cytotoxicity is reported as 18.2% (inactive).
For `COc1ccc(NC(=O)c2cc3ccccc3oc2=O)cc1`, the activity change, negative = cytotoxicity was 7.98% (inactive).
In the case of `O=C(NCCc1ccccc1)c1ccccc1NC(=O)C1CCCO1` (stereo not drawn), the activity change, negative = cytotoxicity is reported as -0.496% (inactive).
For `CC(=O)c1ccc(NC(=O)c2noc3c2CCC3)cc1`, the activity change, negative = cytotoxicity was -19.5% (inactive).
For `COc1ccc(Nc2oc(COc3ccccc3OC)nc2C#N)cc1`, the activity change, negative = cytotoxicity was 0.131% (inactive).
In the case of `O=C(O)c1ccc2cc(-c3ccccc3)[nH]c2c1`, the activity change, negative = cytotoxicity is reported as 10.6% (inactive).
With `C[C@H]1CN([C@@H](C)CO)S(=O)(=O)c2ccc(C#Cc3ccncc3)cc2O[C@@H]1CN(C)S(=O)(=O)c1ccccc1` the activity change, negative = cytotoxicity was -7.09% (inactive).
In the case of `COc1ccc(C(=O)OCC(=O)Nc2ccc(Cl)c(C(F)(F)F)c2)c(OC)c1OC`, the activity change, negative = cytotoxicity is reported as 3.2% (inactive).
In the case of `C[C@@H]1CN([C@@H](C)CO)S(=O)(=O)c2ccc(C#CCN(C)C)cc2O[C@@H]1CN(C)Cc1ccncc1`, the activity change, negative = cytotoxicity is reported as -4.92% (inactive).
With `O=C(NCc1ccccn1)c1ccc(CNS(=O)(=O)c2cccc(Cl)c2)cc1` the activity change, negative = cytotoxicity was 3.71% (inactive).
In the case of `COC(=O)C(CC#Cc1ccc2c(c1)[C@]1(C(=O)N2)[C@H](c2ccc(OCCO)cc2)N2[C@H](c3ccccc3)[C@H](c3ccccc3)OC(=O)[C@H]2[C@@H]1C(=O)N1CCN(c2ncccn2)CC1)C(=O)OC`, the activity change, negative = cytotoxicity is reported as 3.63% (inactive).
With `CCOc1ccc(C(c2c(NC(=O)c3ccccc3)sc(C)c2C)N2CCN(CCO)CC2)cc1` (stereo not drawn) the activity change, negative = cytotoxicity was 16.1% (inactive).
For `O=C(CNC(c1ccccc1)c1ccccc1)Nc1ccccc1-c1ccccc1`, the activity change, negative = cytotoxicity was 11.2% (inactive).
With `CCOC(=O)c1c(-c2ccc(C)cc2)csc1NC(=O)CCN1CCOCC1` the activity change, negative = cytotoxicity was 13.3% (inactive).
For `Cc1ccc(N=C2NC(=O)/C(=C\c3cccs3)S2)cc1C`, the activity change, negative = cytotoxicity was -0.931% (inactive).
With `Cc1cc2sc3ccc(C#CC4(O)CCCCC4)cc3c(=O)c2cc1C` the activity change, negative = cytotoxicity was 23.5% (inactive).
For `COc1cc(/C=N\Nc2nc(-c3ccc(C)cc3)c(NC(C)=O)s2)ccc1O`, the activity change, negative = cytotoxicity was 4.59% (inactive).
For `CCCN(C)C[C@H]1Oc2ncc(-c3ccccc3)cc2C(=O)N([C@@H](C)CO)C[C@H]1C`, the activity change, negative = cytotoxicity was 13% (inactive).
With `COC(=O)C[C@H]1CC[C@@H](NC(=O)Nc2ccc(C(F)(F)F)cc2)[C@H](CO)O1` the activity change, negative = cytotoxicity was -8.02% (inactive).
In the case of `COc1ccc(OC)c(-c2cc(C(F)(F)F)c3c(n2)sc2c(O)cc(=O)[nH]c23)c1`, the activity change, negative = cytotoxicity is reported as -3.31% (inactive).
With `CCOc1cc(N2CCC(O)CC2)ccc1Nc1ncc2c(n1)N(C)c1ccccc1C(=O)N2C` the activity change, negative = cytotoxicity was -28.3% (inactive).
For `COc1ccc(S(=O)(=O)Nc2ccc3c(c2)C(=O)N([C@H](C)CO)C[C@@H](C)[C@@H](CN(C)CC2CCCCC2)OCCCC[C@H](C)O3)cc1`, the activity change, negative = cytotoxicity was -1.56% (inactive).
In the case of `COc1ccc(/C=C2\SC(=S)N(CCCC(=O)Nc3ccc(O)cc3)C2=O)cc1`, the activity change, negative = cytotoxicity is reported as 0.096% (inactive).
With `COC(=O)C[C@@H]1CC[C@@H]2[C@H](COc3ccc(NC(=O)c4cc(F)cc(F)c4)cc3C(=O)N2C)O1` the activity change, negative = cytotoxicity was -5.96% (inactive).
With `NC1=CC(=O)C(=O)c2cccnc21` the activity change, negative = cytotoxicity was 1.93% (inactive).
In the case of `COc1cc(OC)cc(-c2cc3nc(C)c(CCC(=O)O)c(C)n3n2)c1`, the activity change, negative = cytotoxicity is reported as 13.7% (inactive).
In the case of `COc1ccccc1N(/N=C1\Sc2ccccc2C1=O)C(C)=O`, the activity change, negative = cytotoxicity is reported as -15.8% (inactive).
In the case of `COc1ccc2nc(-c3ccc(F)cc3)sc2c1`, the activity change, negative = cytotoxicity is reported as -14.1% (inactive).
With `C[C@@H]1CN([C@H](C)CO)C(=O)CCCn2nncc2CO[C@H]1CN(C)Cc1ccc(Oc2ccccc2)cc1` the activity change, negative = cytotoxicity was -9.65% (inactive).
